This note sets out measurements from patent US6596706B1, “Piperazine-cyclodextrin complexes” (Daiichi Pharmaceutical Co., Ltd., priority 1997, dated 2003).

The test system of data set [1] is red blood cells. Kind of data set: Hemolysis activity with red blood cell suspension, absorbance at 588 nm. The data set is classed as cell-based. The settings on record: for hemolysis activity of compound (1): 0.6 mM compound (1), more suppressed at higher cyclodextrin concentration, FIG. 1. On the procedure: To 10 mM isotonic phosphate buffer solution (pH 6.0, 2 ml) containing SBE7-β-CD or hydroxypropyl-β-cyclodextrin (product of Nihon Shokuhin Kako; hereinafter may be abbreviated as HP-β-CD; molecular weight 1413; substitution ratio: 4.8/21 (about 23%)) at a different concentration and 0.6 mM compound (1) (concentration that permits complete hemolysis) was added a suspension (0.2 ml) of red blood cells suspension (5%). The mixture was maintained for 30 minutes at 37° C. After centrifugal separation (1000× g, 5 min), oxyhemoglobin and methohemoglobin contained in the supernatant were determined based on the absorbance at 588 nm, to thereby investigate the hemolysis activity of compound (1).

A short description of data set [2]: Solubility of compound (1) in aqueous SBE7-β-CD solution or water, HPLC of filtered supernatant. The data set is classed as physicochemical. On the procedure:
To an aqueous solution of a β-cyclodextrin sulfobutyl ether sodium salt (product of CyDex; hereinafter may be abbreviated as SBE7-β-CD; molecular weight 2162.01; substitution ratio: 7/21 (about 33%)) (26, 40, or 72 mM; 2.5 ml) was added an excessive amount of 3-[2-[4-(3-chloro-2-methylphenyl)-1-piperadinyl]ethyl]-5,6-dimethoxy-1-(4-imidazolylmethyl)-1H-indazole,.2HCl.3.5H2O(hereinafter may be abbreviated as compound (1); molecular weight: 631.0) (400 mg). The mixture was allowed to stand for 7 days in a 25° C. water bath. During the standing period, the mixture was sonicated once a day for 15 minutes, followed by stirring for 2 minutes. On the first, fifth, and seventh days, pH of the mixture was adjusted to 4.0 by addition of adequate amount of HCl. After pH was adjusted on the seventh day, the amount of the entirety of the mixture was adjusted to 5 ml (to thereby achieve a SBE7-β-CD concentration of […]). Six days later, the mixture was subjected to centrifugal separation, to thereby collect a supernatant. […] Similarly, the solubility of the piperazine derivative (I) for water was also determined by HPLC.
(Conditions for High Performance Liquid Chromatography (HPLC))
Mobile phase: 50 mM phosphate buffer solution (pH 5.5)/acetonitrile (1:1)
Column temperature: 40° C.

Each structure is given as a SMILES string.

With `COc1cc2c(CCN3CCN(c4cccc(Cl)c4C)CC3)nn(Cc3c[nH]cn3)c2cc1OC.Cl.Cl` [compound (1), 3-[2-[4-(3-chloro-2-methylphenyl)-1-piperadinyl]ethyl]-5,6-dimethoxy-1-(4-imidazolylmethyl)-1H-indazole,.2HCl.3.5H2O], in data set [1] (10 mM isotonic phosphate buffer pH 6.0, 30 minutes at 37° C.), the “concentration that permits complete hemolysis” value is 0.6 mM. Moreover, the “hemolysis activity of compound (1)” value in data set [1] (complex formed by addition of HP-β-CD) and in data set [1] (complex formed by addition of SBE7-β-CD) was “suppressed” in each case. For the same molecule, the “Concentration of compound (1) in supernatant” value in data set [2] (Compound (1) alone, solubility for water) was determined as 14.6 mM; in data set [2] (SBE7-β-CD 13 mM, 25° C., pH 4.0) it was 19.0 mM; in data set [2] (SBE7-β-CD 20 mM, 25° C., pH 4.0) it was 25.6 mM; in data set [2] (SBE7-β-CD 36 mM, 25° C., pH 4.0) it was 56.7 mM.
